Experiments:
[1] = target: μ-opioid receptor (Homo sapiens (Human), UniProt P35372); assay: μ-opioid receptor [35S]GTPγS functional assay, HEK-293 or CHO cells; type: biochemical; conditions: for EC50: GTPγS; for Emax: relative to DAMGO
Experimental: μ-Opioid Receptor Functional Assay Procedures: [^35S]GTPγS functional assays were conducted using freshly thawed μ-receptor membranes prepared in-house from a cell line expressing recombinant μ opioid receptor in a HEK-293, CHO or U-2 OS cell background, or purchased from a commercial source (Perkin Elmer, Shelton, Conn.; or DiscovRx, Fremont, Calif.). Assay reactions were prepared by sequentially adding the following reagents to binding buffer (100 mM NaCl, 10 mM MgCl2, 20 mM HEPES, pH 7.4) on ice (final concentrations indicated): membrane protein (0.026 mg/mL), saponin ([…]), GDP ([…]) and [^35S]GTPγS (0.20 nM; Perkin Elmer, Shelton, Conn.). The prepared membrane solution (190 μl/well) was transferred to 96-shallow well polypropylene plates containing 10 μl of 20× concentrated stock solutions of the agonist [D-Ala^2, N-methyl-Phe^4 Gly-ol^5]-enkephalin (DAMGO) prepared in dimethyl sulfoxide (DMSO). Plates were incubated for 30 min at about 25° C. with shaking. Reactions were terminated by rapid filtration onto 96-well Unifilter GF/B filter plates (Perkin Elmer, Shelton, Conn.) using a 96-well tissue harvester (Perkin Elmer, Shelton, Conn.) followed by three filtration washes with 200 μl of ice-cold wash buffer (10 mM NaH2PO4, 10 mM Na2HPO4, pH 7.4). Filter plates were subsequently dried at 50° C. for 2-3 hours. BetaScint scintillation cocktail (Perkin Elmer, Shelton, Conn.) was added (50 μl/well) and plates were counted using a Packard Top-Count for 1 min/well. Data were analyzed using the sigmoidal dose-response curve fitting functions in GraphPad PRISM v. 3.0, or an in-house function for non-linear, sigmoidal dose-response curve-fitting.
μ-Opioid Receptor Functional Data: μ GTP EC50 is the concentration of a compound providing 50% of the maximal response for the compound at a μ-opioid receptor.
μ GTP Emax (%) is the maximal effect elicited by a compound relative to the effect elicited by DAMGO, a standard μ agonist. Generally, the μ GTP Emax (%) value measures the efficacy of a compound to treat or prevent pain or other Conditions.
(§1) In TABLE 2, activity response of certain Compounds of the Invention to the μ-, δ- and κ-opioid receptors was determined as described above for functional assays using HEK-293 or CHO cells.

[2] = target: κ opioid receptor (Homo sapiens (Human), UniProt P41145); assay: κ-opioid receptor [35S]GTPγS functional assay, HEK-293 or CHO cells; type: biochemical; conditions: for EC50: GTPγS; for Emax: relative to U69,593
Experimental: κ-Opioid Receptor Functional Assay Procedures: Functional [^35S]GTPγS binding assays were conducted as follows. κ opioid receptor membrane solution was prepared by sequentially adding final concentrations of 0.026 μg/μl κ membrane protein (in-house), 10 μg/mL saponin, 3 μM GDP and 0.20 nM [^35S]GTPγS to binding buffer (100 mM NaCl, 10 mM MgCl2, 20 mM HEPES, pH 7.4) on ice. The prepared membrane solution (190 μl/well) was transferred to 96-shallow well polypropylene plates containing 10 μl of 20× concentrated stock solutions of agonist prepared in DMSO. Plates were incubated for 30 min at a temperature of about 25° C. with shaking. Reactions were terminated by rapid filtration onto 96-well Unifilter GF/B filter plates (Perkin Elmer, Shelton, Conn.) using a 96-well tissue harvester (Packard) and followed by three filtration washes with 200 μl ice-cold binding buffer (10 mM NaH2PO4, 10 mM Na2HPO4, pH 7.4). Filter plates were subsequently dried at 50° C. for 2-3 hours. Fifty μl/well scintillation cocktail (Perkin Elmer, Shelton, Conn.) was added and plates were counted in a Packard Top-Count for 1 min/well.
κ-Oploid Receptor Functional Data: κ GTP EC50 is the concentration of a compound providing 50% of the maximal response for the compound at a K receptor.
κ GTP Emax (%) is the maximal effect elicited by a compound relative to the effect elicited by U69,593.
as §1

[3] = target: recombinant human kappa opioid receptor (κ) (Homo sapiens (Human), UniProt P41145); assay: κ-opioid receptor radioligand dose-displacement binding assay ([3H]-U69,593)
Experimental: κ-Opioid Receptor Binding Assay Procedures: Membranes from HEK-293 cells, CHO or U-2 OS cells expressing the recombinant human kappa opioid receptor (κ) (cloned in house) were prepared by lysing cells in ice cold hypotonic buffer (2.5 mM MgCl2, 50 mM HEPES, pH 7.4) (10 mL/10 cm dish) followed by homogenization with a tissue grinder/Teflon pestle. Membranes were collected by centrifugation at 30,000×g for 15 min at 4° C. and pellets were resuspended in hypotonic buffer to a final concentration of 1-3 mg/mL. Protein concentrations were determined using the BioRad protein assay reagent with bovine serum albumen as standard. Aliquots of κ receptor membranes were stored at −80° C.
Radioligand dose displacement assays used 0.4 nM [^3H]-U69,593 (GE Healthcare, Piscataway, N.J.; 40 Ci/mmole) with 15 μg membrane protein (recombinant κ opioid receptor expressed in HEK 293 cells; in-house prep) in a final volume of 200 μl binding buffer (5% DMSO, 50 mM Trizma base, pH 7.4). Non-specific binding was determined in the presence of 10 μM unlabeled naloxone or U69,593. All reactions were performed in 96-well polypropylene plates for 1 hour at a temperature of about 25° C. Binding reactions were terminated by rapid filtration onto 96-well Unifilter GF/C filter plates (Perkin Elmer, Shelton, Conn.) presoaked in 0.5% polyethylenimine (Sigma). Harvesting was performed using a 96-well tissue harvester (Perkin Elmer, Shelton, Conn.) followed by five filtration washes with 200 μl ice-cold binding buffer. Filter plates were subsequently dried at 50° C. for 1-2 hours. Fifty μl/well scintillation cocktail (Perkin Elmer, Shelton, Conn.) was added and plates were counted in a Packard Top-Count for 1 min/well.
In TABLE 1, binding affinity of certain Compounds of the Invention to the μ-, δ- and κ-opioid receptors was determined as described above.

In the case of `NC(=O)CN1C[C@H]2[C@H]3Cc4ccc(O)cc4[C@@]2(CCN3CC2CC2)CC1=O` [Compound 4, 2-((4aS,5R,10bS)— 13-(cyclopropylmethyl)-9-hydroxy-2-oxo-4,4-a,5,6-tetrahydro-1H-5,10b-(epiminoethano)benzo[f]isoquinolin-3(2H)-yl)acetamide], the EC50 [1] is reported as 9.11 ± 1.22 nM, the Emax [1] is reported as 24% and the EC50 [2] is reported as 80.8 ± 5.95 nM. It also gave an Emax [2] of 62% and a Ki [3] of 0.55 ± 0.08 nM.
For `O=C1C[C@]23CCN(CC4CC4)[C@H](Cc4ccc(O)cc42)[C@@H]3CN1Cc1ccc(O)cc1` [Compound 5, (4aS,5R,10bS)-13-(cyclopropylmethyl)-9-hydroxy-3-(4-hydroxybenzyl)-4,4-a,5,6-tetrahydro-1H-5,10b-(epiminoethano)benzo[f]isoquinolin-2(3H)-one], the EC50 [1] was 45.9 ± 14 nM, the Emax [1] was 30% and the EC50 [2] was 102 ± 19.9 nM. For the same molecule, the Emax [2] was 42% and the Ki [3] was 6.27 ± 1.45 nM.
`O=C1C[C@]23CCN(CC4CC4)[C@H](Cc4ccc(O)cc42)[C@@H]3CN1` [Compound 7, (4aS,5R,10bS)-13-(cyclopropylmethyl)-9-hydroxy-4,4-a,5,6-tetrahydro-1H-5,10b-(epiminoethano)benzo[f]isoquinolin-2(3H)-one] gave an EC50 [1] of 13.1 ± 3.75 nM, an Emax [1] of 28.7% and an EC50 [2] of 5.1 ± 1.62 nM. For the same molecule, the Emax [2] was 74.7% and the Ki [3] was 0.18 ± 0.02 nM.
Work on `O=C(O)CN1C[C@H]2[C@H]3Cc4ccc(O)cc4[C@@]2(CCN3CC2CC2)CC1=O` [Compound 8, 2-((4aS,5R,10bS)-13-(cyclopropylmethyl)-9-hydroxy-2-oxo-4,4-a,5,6-tetrahydro-1H-5,10b-(epiminoethano)benzo[f]isoquinolin-3(2H)-yl)acetic acid] yielded an EC50 [1] of 6.06 ± 2.1 nM, an Emax [1] of 12.3% and an EC50 [2] of 14.9 ± 2.71 nM. For the same molecule, the Emax [2] was 66% and the Ki [3] was 4.03 ± 0.07 nM.
Molecule `Oc1ccc2c(c1)[C@@]13CCNC[C@H]1[C@@H](C2)N(CC1CC1)CC3` [Compound 13, (4aS,5R,10bR)-13-(cyclopropylmethyl)-2,3,4,4a,5,6-hexahydro-1H-5,10b-(epiminoethano)benzo[f]isoquinolin-9-ol] has an EC50 [1] of 29.4 ± 7.66 nM, an Emax [1] of 61% and an EC50 [2] of 29.5 ± 14.8 nM. It also gave an Emax [2] of 78.3% and a Ki [3] of 0.21 ± 0.04 nM.

Reference: US8937084B2, “Nitrogen containing morphinan derivatives and the use thereof” (Purdue Pharma L.P., priority 2012, dated 2015)
